In patent US7935526B2, “hERG channel-expressing cell” (priority 2003, dated 2011):

Tested on: hERG channel-expressing cells
Protocol: Specifically, changes in membrane potential may be measured by performing the following operations in a manner as described below. The hERG channel-expressing cell of the invention is cultured for a specific period of time by the appropriate method as described above and suspended in a buffer suitable for measurement. […] Preferably, phosphate buffered saline (pH 7.4) is used. It is preferred that the cell suspension be prepared to give a concentration of 0.2×10^5 cells/ml to 1.0×10^6 cells/ml. Subsequently, the cell suspension is plated on plates (such as Biocoat Poly-D-Lysine 384-Well Black/Clear Plate; BECKTON DICKINSON) and cultured further Cells may be plated at 500 cells/well to 25000 cells/well. Preferably, cells are cultured for about two days after the plating. […] About one hour after the addition of Component A, changes in membrane potential may be measured with FLIPR (Molecular Devices) or FDSS6000 (Hamamatsu Photonics). […] Measurement may be performed at room temperature. hERG inhibitory activity may be calculated from the change in fluorescence intensity caused by the addition of the test compound. […]
About one hour after the addition of Component A, changes in membrane potential were measured with FDSS6000. […] Measurement was performed at room temperature. hERG inhibitory activity was calculated from the fluorescence intensity change for 5 min after the addition of the test substance. […]

`[Cl-].[K+]` [KCl] was tested, and the “changes in membrane potential (fluorescence intensity change)” value was “the membrane potential was depolarized”.
